Key:
rat [1] = settings: Fertility (Segment I), sprague dawley, Oral, Gavage/Intubation, dose end: 6 PND
rat [2] = settings: Sub-acute repeat dose toxicity, sprague dawley, Oral, Gavage/Intubation, dose end: 28 day, group: systemic
rabbit [3] = settings: Prenatal developmental toxicity study; himalayan; Oral; Gavage/Intubation; dose end: 12 GD; group: maternal; systemic / in life observation / body weight / body weight gain + systemic / in life observation / food consumption / food consumption
rabbit [4] = settings: Prenatal developmental toxicity study, himalayan, Oral, Gavage/Intubation, dose end: 18 GD
mouse = settings: Subchronic oral toxicity in rodents, cd1, Gavage/Intubation, dose end: 13 week, group: systemic
dog [5] = settings: Chronic toxicity; beagle; Oral; Gavage/Intubation; dose end: 12 month; group: systemic; systemic / hematology / erythrocyte (rbc) count differential / erythrocyte (rbc) + systemic / hematology / hematocrit (hct) / hematocrit (…
rat [6] = settings: Prenatal developmental toxicity study, sprague dawley, Oral, Gavage/Intubation, dose end: 17 GD
dog [7] = settings: Sub-acute repeat dose toxicity, beagle, Oral, Gavage/Intubation, dose end: 1 month, group: systemic
rat [8] = settings: Chronic toxicity; sprague dawley; Oral; Gavage/Intubation; dose end: 6 month; group: systemic; systemic / clinical chemistry / phosphorus / phosphorus + systemic / clinical chemistry / potassium / potassium + systemic / organ weight / …
dog [9] = settings: Chronic toxicity; beagle; Oral; Gavage/Intubation; dose end: 6 month; group: systemic; systemic / hematology / anisocytosis / anisocytosis + systemic / hematology / jolly bodies / jolly bodies + systemic / hematology / myeloid/…
rat [10] = settings: Subchronic oral toxicity in rodents, sprague dawley, Gavage/Intubation, dose end: 13 week, group: systemic
rabbit [11] = settings: Prenatal developmental toxicity study, himalayan, Oral, Gavage/Intubation, dose end: 18 GD, group: maternal
[12] = group: maternal, reproductive / reproductive performance / estrous cycle / corpora lutea + reproductive / reproductive performance / implantations / …
[13] = group: parental, systemic / in life observation / body weight / body weight gain + systemic / in life observation / clinical signs / fur (altered appearance…
[14] = group: parental, systemic / in life observation / body weight / body weight gain + systemic / in life observation / food consumption / food efficiency
[15] = systemic / clinical chemistry / creatinine / creatinine + systemic / clinical chemistry / glucose / glucose + systemic / clinical chemistry…
[16] = systemic / clinical chemistry / creatinine / creatinine + systemic / clinical chemistry / potassium / potassium + systemic / clinical …
[17] = group: developmental, developmental / developmental malformation / limb / [other] + systemic / in life observation / body weight / fetal weight
[18] = group: maternal, reproductive / reproductive performance / aborted / aborted + reproductive / reproductive performance / premature delivery / premature …
[19] = group: maternal, systemic / in life observation / body weight / body weight gain + systemic / in life observation / food consumption / food consumption
[20] = systemic / clinical chemistry / urea nitrogen / urea nitrogen + systemic / hematology / hemoglobin (hgb) / hemoglobin (hgb) + systemic / …
[21] = group: developmental, developmental / developmental malformation / bone / delayed ossification + developmental / developmental malformation / bone / unossified
[22] = group: maternal, systemic / in life observation / body weight / body weight gain + systemic / in life observation / food consumption / food consumption + …
[23] = systemic / hematology / [other] / [other] + systemic / hematology / erythrocyte (rbc) count differential / erythrocyte (rbc) + systemic / …
[24] = systemic / hematology / erythrocyte (rbc) count differential / erythrocyte (rbc) + systemic / hematology / hematocrit (hct) / hematocrit (…
[25] = systemic / clinical chemistry / phosphorus / phosphorus + systemic / clinical chemistry / potassium / potassium + systemic / clinical …
[26] = systemic / clinical chemistry / phosphorus / phosphorus + systemic / clinical chemistry / urea nitrogen / urea nitrogen + systemic / …
[27] = systemic / in life observation / body weight / body weight gain + systemic / in life observation / food consumption / food consumption
[28] = systemic / in life observation / body weight / body weight gain + systemic / in life observation / food consumption / food consumption + …

For CC(=O)S[C@H](C(=O)N[C@H]1Cc2ccccc2[C@H]2CCC[C@@H](C(=O)O)N2C1=O)C(C)C [Ilepatril], the LEL (rat [1]; [12]) was 1000 mg/kg/day, the LOAEL (rat [1]; [12]) was greater than 1000 mg/kg/day and the NEL (rat [1]; [12]) was 100 mg/kg/day. It also gave an NOAEL (rat [1]; [12]) of no less than 1000 mg/kg/day, an LOAEL (rat [1]; [13]) greater than 1000 mg/kg/day and an NOAEL (rat [1]; [13]) of no less than 1000 mg/kg/day. It also gave an LEL (rat [1]; [14]) of 10 mg/kg/day, an NEL (rat [1]; [14]) of less than 10 mg/kg/day and an LOAEL (rat [2]; [15]) greater than 1000 mg/kg/day. The NOAEL (rat [2]; [15]) was no less than 1000 mg/kg/day, the LEL (rat [2]; [16]) was 30 mg/kg/day and the NEL (rat [2]; [16]) was less than 30 mg/kg/day. It also gave an LEL (rabbit [3]) of 0.8 mg/kg/day, an LOAEL (rabbit [3]) greater than 2 mg/kg/day and an NEL (rabbit [3]) of 0.32 mg/kg/day. The NOAEL (rabbit [3]) was no less than 2 mg/kg/day, the LEL (rabbit [4]; group: developmental, developmental / developmental malformation / limb / [other]) was 3.2 mg/kg/day and the LOAEL (rabbit [4]; [17]) was greater than 160 mg/kg/day. It also gave an NEL (rabbit [4]; [17]) of 1 mg/kg/day, an NOAEL (rabbit [4]; [17]) of no less than 160 mg/kg/day and an LOAEL (rabbit [4]; [18]) greater than 160 mg/kg/day. The NOAEL (rabbit [4]; [18]) was no less than 160 mg/kg/day, the LEL (rabbit [4]; [19]) was 1 mg/kg/day and the NEL (rabbit [4]; [19]) was less than 1 mg/kg/day. For the same compound, the LOAEL (mouse; [16]) was greater than 1600 mg/kg/day, the NOAEL (mouse; [16]) was no less than 1600 mg/kg/day and the LEL (mouse; [20]) was 400 mg/kg/day. The NEL (mouse; [20]) was less than 400 mg/kg/day, the LEL (dog [5]) was 12 mg/kg/day and the LOAEL (dog [5]) was greater than 12 mg/kg/day. The NEL (dog [5]) was 6 mg/kg/day, the NOAEL (dog [5]) was no less than 12 mg/kg/day and the LEL (rat [6]; [21]) was 300 mg/kg/day. The LOAEL (rat [6]; [21]) was 300 mg/kg/day, the NEL (rat [6]; [21]) was 30 mg/kg/day and the NOAEL (rat [6]; [21]) was 30 mg/kg/day. The LEL (rat [6]; [19]) was 300 mg/kg/day, the LOAEL (rat [6]; [19]) was 300 mg/kg/day and the NEL (rat [6]; [22]) was 30 mg/kg/day. The NOAEL (rat [6]; [22]) was 30 mg/kg/day, the LOAEL (dog [7]; [23]) was 50 mg/kg/day and the NOAEL (dog [7]; [23]) was 10 mg/kg/day. It also gave an LEL (dog [7]; [24]) of 10 mg/kg/day, an NEL (dog [7]; [24]) of less than 10 mg/kg/day and an LEL (rat [8]) of 10 mg/kg/day. It also gave an LOAEL (rat [8]) greater than 1000 mg/kg/day, an NEL (rat [8]) of less than 10 mg/kg/day and an NOAEL (rat [8]) of no less than 1000 mg/kg/day. The LEL (dog [9]) was 30 mg/kg/day, the LOAEL (dog [9]) was greater than 30 mg/kg/day and the NEL (dog [9]) was 10 mg/kg/day. For the same compound, the NOAEL (dog [9]) was no less than 30 mg/kg/day, the LOAEL (rat [10]; [25]) was greater than 1600 mg/kg/day and the NOAEL (rat [10]; [25]) was no less than 1600 mg/kg/day. The LEL (rat [10]; [26]) was 400 mg/kg/day, the NEL (rat [10]; [26]) was less than 400 mg/kg/day and the LEL (rabbit [11]; [27]) was 0.8 mg/kg/day. For the same compound, the LOAEL (rabbit [11]; [27]) was 0.8 mg/kg/day, the NEL (rabbit [11]; [28]) was 0.32 mg/kg/day and the NOAEL (rabbit [11]; [28]) was 0.32 mg/kg/day.

Reference: EPA's ToxRefDB 2
